Data published in patent US7928090B2, “External preparation composition” (Lion Corporation, priority 2002, dated 2011).

Assays:
guinea pig skin = experiment: Continuous irritative test of guinea pig skin (Draize method); type: in vivo, guinea pig (Hartley series); conditions: 0.5% in ethanol/propylene glycol (7:3), 3 days straight, full marks 8 points
Description: Each left and right two spots (4 spots/head) of applying parts having a frame of 2 cm×2 cm were provided on the back of a shaved guinea pig (Hartley series, 7 weeks of age, female, N=10), and each 50 μL of an ethanol/propylene glycol (7:3) solution containing 0.5% of the respective acyl glucosamine derivatives shown in the following Table 1 was applied once a day on the respective frames.
A skin irritative score after application for 3 days straight was evaluated according to the following evaluation criteria (Draize method). The above irritative score was shown by the total points (full marks: 8 points) of erythema and edema.
Evaluation Criteria of Skin Irritative Score:
3: middle to strong erythema
4: very strong erythema to crust
1: very slight edema formation
2: slight edema formation
3: middle edema formation
4: strong edema formation

[1] = tested on: back skin of hairless mice irradiated with UVB; experiment: Wrinkle-improving test; type: in vivo, hairless mice (hos: HR-1); conditions: 0.05% in ethanol/propylene glycol (7:3), 100 μL once a day, five times a week, 8 weeks; versus control group
Description: (§1) Four (4) hairless mice per 1 group (hos: HR-1, 10 weeks of age, female) were irradiated on the back skin once a day with UVB at 50 mJ/cm^2 five times a week over a period of 10 weeks. After finishing irradiation, each 100 μL of an ethanol/propylene glycol (7:3) solution containing 0.05% of various acyl glucosamine derivatives shown in the following Table 3 was applied on the mouse back in a frequency of once a day and five times a week over 8 weeks.
After finishing application for 8 weeks, the degree of wrinkles was visually evaluated according to the following evaluation criteria and calculation equation. A control group applied with the ethanol/propylene glycol (7:3) solution was evaluated as a control in the same manner.
Evaluation Criteria of the Degree of Wrinkles:
Evaluation point 0: a lot of fine striations is present on the back and the flank; fine striations run in a direction from the head to the tail; and the striations appear or disappear with the motion of the mouse.
Evaluation point 1: all fine striations along the spine are not observed; a few shallow and coarse wrinkles run perpendicularly to the head-to-tail direction; and the striations appear or disappear with the motion of the mouse.
The respective bodies were evaluated by an evaluation point of a 0.5 unit to calculate an average point for the respective groups, and the wrinkle-improving rate was calculated for the respective groups according to the following equation (II). Wrinkle-improving rate (%)=[(average value of the control group−average value of a glucosamine derivative-applied group)/(average value of the control group)]×100 (II)

[2] = tested on: back skin of hairless mice irradiated with UVB; experiment: Coarse texture-improving test; type: in vivo, hairless mice (hos: HR-1); conditions: 0.05% in ethanol/propylene glycol (7:3), 100 μL, 4 weeks; texture intersection points relative to non-irradiated group (control 24)
Description: as §1, with “at 40” for “at 50”, “mJ/cm^2 three” for “mJ/cm^2 five”, “of 6” for “of 10”, “Table 4 or an ethanol/propylene glycol (7:3) solution as a control” for “Table 3”, “over 4” for “over 8”
After finishing application, a replica agent (brand name SILFLO®; manufactured by UK FLEXICO DEVELOPMENTS LTD.) was used to obtain a replica of a mouse back skin. A replica of a UV-non-irradiated group (4 heads) was obtained as a control in the same manner.
The enlarged photographs of the respective replicas were taken through a macro lens (magnification: four times), and the photographs were used to evaluate “coarsening of the texture”.
The coarseness of the texture was defined by a “number of texture intersection point”, wherein a point in which three or more sulci cutis are joined is counted as one intersection point, and the number of the texture intersection points present in a square of 1 cm×1 cm was counted on the replica photograph.
An average point for the respective groups was calculated, and the texture-improving rate was calculated according to the following equation (III). Texture-improving rate (%)=[(number of texture intersection of applied group)/(number of texture intersection point of non-irradiated group)]×100 (III)

[3] = tested on: skin roughness in the inside of a forearm of a human being; experiment: Skin roughness-improving test (SDS-induced skin roughness); type: in vivo; conditions: hydrophilic ointment with 0.05%, twice a day, 3 days; conductance relative to ointment with no tested substance = 100
Description: A 10% SDS solution was used to artificially form a skin roughness in the inside of a forearm of a human being, and a hydrophilic ointment blended with 0.05% of various acyl glucosamine derivatives shown in the following Table 5 was applied thereon twice a day.
The skin roughness-improving degree observed 3 days later after application was evaluated using a change in a stratum corneum water content as an index. The stratum corneum water content is measured in terms of a conductance (μS). The improving degree was shown by a relative value, wherein the conductance observed when applying the hydrophilic ointment blended with no acyl glucosamine derivative was set at 100, and the skin roughness-improving rate was calculated according to the following equation (IV). Skin roughness-improving rate (%)=[(conductance observed when applying the ointment blended with the tested substance)/(conductance observed when applying the ointment blended with no tested substance)]×100 (IV)

acne patients = experiment: Acne-improvement evaluation; type: in vivo, human; conditions: essence with 0.05%, one month; for Evaluation X (worsened), number of subjects / Evaluation Δ (no change), number of subjects / Evaluation ⊚ (notably improved), number of subjects / Evaluation ◯ (improved), number of subjects: applied on face several times a day; for Acne treating effect: percentage of subjects rated improved or better
Description: Prepared was an essence for acne shown in the following composition example in which 0.05% of various acyl glucosamine derivatives shown in the following Table 6 was blended. An essence which was not blended with an acyl glucosamine derivative was prepared as a control.
Sixty acne patients were picked up as subjects to apply everyday the respective essences on the faces thereof several times a day, and the therapeutic effect against the acnes was visually evaluated a month later according to four degrees of the following evaluation criteria.
In the four degree evaluation described above, improvement (∘) or better effect (⊚) was regarded as “effective for treating acnes”, and the subjects showing a treating effect were shown by a numerical value (percentage).

[4] = tested on: pigmentation on the backs of color guinea pigs; experiment: Whitening evaluation (UV-induced pigmentation); type: in vivo; parameters: key: +++: notably improved; ++: improved; +: a little improved; ±: no change; conditions: 0.05% in ethanol/propylene glycol (7:3), 30 μL once a day, five times a week, 4 weeks; visual change in pigmentation
Description: Back body hair of color guinea pigs were shaved by means of a hair clipper and a shaver, and they were irradiated with UV rays once a day, 4 times a week and 8 times in total, whereby 4 parts of pigmentation having an area of about 2.25 cm^2 were formed on the backs of the respective guinea pigs.
Each 30 μL of an ethanol/propylene glycol (7:3) solution containing 0.05% of various acyl glucosamine derivatives shown in the following Table 7 was applied thereon in a frequency of once a day and five times a week over 4 weeks, and a change in the pigmentation was visually evaluated according to four degrees of the following evaluation criteria. The solution containing no acyl glucosamine derivative was used for a comparative example.

[5] = Table 1, 50 μL once a day, total of erythema and edema

Molecule CC(=O)OC[C@H]1OC(OC(C)=O)[C@H](NC(=O)/C=C(C)/C=C/C=C(C)/C=C/C2=C(C)CCCC2(C)C)[C@@H](OC(C)=O)[C@@H]1OC(C)=O (single isomer, unassigned) [1,3,4,6-tetra-O-acetyl-N-retinoyl-D-glucosamine (9-cis isome] [listing 1 of 2 here] has a Draize score (guinea pig skin; Table 2, by stereoisomer ratio) of 0.0 points.
Molecule CC(=O)OC[C@H]1OC(OC(C)=O)[C@H](NC(=O)/C=C(C)/C=C/C=C(C)/C=C/C2=C(C)CCCC2(C)C)[C@@H](OC(C)=O)[C@@H]1OC(C)=O (single isomer, unassigned) [1,3,4,6-tetra-O-acetyl-N-retinoyl-D-glucosamine (9-cis isome] [listing 2 of 2 here] has a Draize score (guinea pig skin; Table 2, by stereoisomer ratio) of 0.0 points.
CC(=O)OC[C@H]1OC(OC(C)=O)[C@H](NC(=O)/C=C(C)/C=C/C=C(C)/C=C/C2=C(C)CCCC2(C)C)[C@@H](OC(C)=O)[C@@H]1OC(C)=O (single isomer, unassigned) [1,3,4,6-tetra-O-acetyl-N-retinoyl-D-glucosamine (13-cis isom] gave a Draize score (guinea pig skin; Table 2, by stereoisomer ratio) of 0.0 points.
Work on CC(=O)OC[C@H]1OC(OC(C)=O)[C@H](NC(=O)/C=C(C)/C=C/C=C(C)/C=C/C2=C(C)CCCC2(C)C)[C@@H](OC(C)=O)[C@@H]1OC(C)=O (single isomer, unassigned) [1,3,4,6-tetra-O-acetyl-N-retinoyl-D-glucosamine (cis isomer/] yielded a Draize score (guinea pig skin; Table 2, by stereoisomer ratio) of 0.0 points.
In the case of CC(C=CC1=C(C)CCCC1(C)C)=CC=CC(C)=CC(=O)N[C@H]1C(O)O[C@H](CO)[C@@H](O)[C@@H]1O (single isomer, unassigned) [N-retinoyl-D-glucosamine (9-cis isomer/13-cis isomer/trans i], the Draize score (guinea pig skin; [5]) is reported as 0.1 points.
Molecule CC(C=CC1=C(C)CCCC1(C)C)=CC=CC(C)=CC(=O)N[C@H]1C(O)O[C@H](CO)[C@@H](O)[C@@H]1O (single isomer, unassigned) [N-retinoyl-D-glucosamine (9-cis isomer/trans isomer = 0.5/99.5), N-retinoyl-D-glucosamine] has a Draize score (guinea pig skin; Table 2, by stereoisomer ratio) of 0.1 points.
Molecule CC(C=CC1=C(C)CCCC1(C)C)=CC=CC(C)=CC(=O)N[C@H]1C(O)O[C@H](CO)[C@@H](O)[C@@H]1O (single isomer, unassigned) [N-retinoyl-D-glucosamine (13-cis isomer/trans isomer = 0.5/99.5), N-retinoyl-D-glucosamine] has a Draize score (guinea pig skin; Table 2, by stereoisomer ratio) of 0.0 points.
Work on CC(C=CC1=C(C)CCCC1(C)C)=CC=CC(C)=CC(=O)N[C@H]1C(O)O[C@H](CO)[C@@H](O)[C@@H]1O (single isomer, unassigned) [N-retinoyl-D-glucosamine (cis isomer/trans isomer = 0/100), N-retinoyl-D-glucosamine] yielded a Draize score (guinea pig skin; Table 2, by stereoisomer ratio) of 0.0 points.
In the case of CC(C=CC1=C(C)CCCC1(C)C)=CC=CC(C)=CC(=O)N[C@H]1C(O)O[C@H](CO)[C@@H](O)[C@@H]1O (single isomer, unassigned) [N-retinoyl-D-glucosamine], the Wrinkle-improving rate [1] is reported as 89%, the Texture-improving rate [2] is reported as 75% and the Skin roughness-improving rate [3] is reported as 127%. The “Evaluation X (worsened), number of subjects” value (“Evaluation X (worsened)” below) (acne patients) was 0, the “Evaluation Δ (no change), number of subjects” value (“Evaluation Δ (no change)” below) (acne patients) was 0 and the “Evaluation ⊚ (notably improved), number of subjects” value (“Evaluation ⊚ (notably improved)” for short) (acne patients) was 4. The “Evaluation ◯ (improved), number of subjects” value (“Evaluation ◯ (improved)” for short) (acne patients) was 2, the Acne treating effect (acne patients) was 100% and the Whitening-improving effect [4] was “+++”.
CC(=O)OC[C@H]1OC(OC(C)=O)[C@H](NC(=O)/C=C(C)/C=C/C=C(C)/C=C/C2=C(C)CCCC2(C)C)[C@@H](OC(C)=O)[C@@H]1OC(C)=O (stereo partly drawn) [1,3,4,6-tetra-O-acetyl-N-retinoyl-D-glucosamine] gave a Draize score (guinea pig skin; [5]) of 0.0 points.
In the case of CCCCCCCCCCCCCCCCOCCOCCOC(=O)N[C@H]1C(O)O[C@H](CO)[C@@H](O)[C@@H]1O (stereo partly drawn) [N-POE (2) hexadecyletheroxycarbonyl-D-glucosamine], the Draize score (guinea pig skin; [5]) is reported as 0.1 points, the Wrinkle-improving rate [1] is reported as 72% and the Texture-improving rate [2] is reported as 89%. For the same molecule, the Skin roughness-improving rate [3] was 139%, the “Evaluation X (worsened)” value (acne patients) was 0 and the “Evaluation Δ (no change)” value (acne patients) was 2. For the same molecule, the “Evaluation ⊚ (notably improved)” value (acne patients) was 0, the “Evaluation ◯ (improved)” value (acne patients) was 3 and the Acne treating effect (acne patients) was 60%. For the same molecule, the Whitening-improving effect [4] was “++”.
With CC(C)CCCCCCCCCCCCCCC(=O)N[C@H]1C(O)O[C@H](CO)[C@@H](O)[C@@H]1O (stereo partly drawn) [N-isostearoyl-D-glucosamine] the Draize score (guinea pig skin; [5]) was 0.1 points, the “Evaluation X (worsened)” value (acne patients) was 0 and the “Evaluation Δ (no change)” value (acne patients) was 2. For the same molecule, the “Evaluation ⊚ (notably improved)” value (acne patients) was 0 and the “Evaluation ◯ (improved)” value (acne patients) was 3.
With CCCCCCCCCCCC(=O)N[C@H]1C(O)O[C@H](CO)[C@@H](O)[C@@H]1O (stereo partly drawn) [N-lauroyl-D-glucosamine] the Draize score (guinea pig skin; [5]) was 0.1 points, the “Evaluation X (worsened)” value (acne patients) was 1 and the “Evaluation Δ (no change)” value (acne patients) was 1. For the same molecule, the “Evaluation ⊚ (notably improved)” value (acne patients) was 0 and the “Evaluation ◯ (improved)” value (acne patients) was 1.
With CCCCC/C=C\C/C=C\CCCCCCCC(=O)N[C@H]1C(O)O[C@H](CO)[C@@H](O)[C@@H]1O (stereo partly drawn) [N-linoleoyl-D-glucosamine] the Draize score (guinea pig skin; [5]) was 0.3 points, the “Evaluation X (worsened)” value (acne patients) was 1 and the “Evaluation Δ (no change)” value (acne patients) was 3. For the same molecule, the “Evaluation ⊚ (notably improved)” value (acne patients) was 0 and the “Evaluation ◯ (improved)” value (acne patients) was 1.
For CCCCCCCC/C=C\CCCCCCCC(=O)N[C@H]1C(O)O[C@H](CO)[C@@H](O)[C@@H]1O (stereo partly drawn) [N-oleoyl-D-glucosamine], the Draize score (guinea pig skin; [5]) was 0.2 points, the “Evaluation X (worsened)” value (acne patients) was 0 and the “Evaluation Δ (no change)” value (acne patients) was 2. The “Evaluation ⊚ (notably improved)” value (acne patients) was 0 and the “Evaluation ◯ (improved)” value (acne patients) was 3.
With CC1=C(/C=C/C(C)=C/C=C/C(C)=C/C(=O)O)C(C)(C)CCC1 [Retinoic acid, reference compound] the Draize score (guinea pig skin; [5]) was 8.0 points.
